The source of these data is patent US20040019018A1, “Rigid pyrrolidone modulators of pkc” (priority 2003, published 2004).

Experiment in all cases: [3H]PDBu displacement from recombinant PKC isozyme (baculovirus)
What all share (assay type): binding
Details in all cases: [3H]PDBu competition

One test addresses T1, α-PKC (Homo sapiens, UniProt P17252).
T1 construct: made in house; host or cells: Sf9 cells (baculovirus)
On the procedure:
(§1) The ability of representative compounds of the invention to bind specific isozymes of PKC was determined using an assay (Example 13) in which displacement of [20-^3H]phorbol -12,13-dibutyrate ([^3H]PDBu) from either recombinant PKC isozymes prepared in a Baculovirus system, or unresolved mixture of isozymes of PKC isolated from whole brain extracts, was used. These procedures are described below. […] (See the key that follows)
(§2) Analysis of [20-^3H]phorbol 12,13-dibutyrate binding to PKC. Specific binding of [^3H]PDBu to PKC was carried out as described (Kazanietz, et al., Mol. Pharmacol. 44:298-307 (1993)). [^3H]PDBu (20.0 Ci/mmol) was obtained from New England Nuclear. Phosphatidylserine and bovine […] were obtained from Sigma Chemical Co. Binding was determined in an incubation volume of 250 μl, containing [^3H]PDBu, PKC, 0.05 M Tris-Cl, pH 7.4, 100 μg/ml phosphatidylserine, various concentrations of the ligand being assayed for competition of [^3H]PDBu binding, and bovine […] at 1 mg/ml. In the case of the classical PKCs (α, β, […]) CaCl2 was included at a concentration of 0.1 mM. Liposomes of phosphatidylserine were prepared as follows. The phosphatidylserine solutions were dried down from CHCl3 under a stream of N2. After addition of 0.05 M Tris-Cl, pH 7.4, liposomes were prepared by sonication for 30 sec with the microtip probe of Sonifier Cell Disrupter (Heat Systems-Ultrasonics). [^3H]PDBu was used at a concentration twice the Kd previously determined for the specific receptor. Ligands were assayed over a concentration range of 3 orders of magnitude. Ligands were diluted in 0.05 M Tris-Cl, pH 7.4 containing 1 mg/ml bovine g-globulin. If the compounds were not soluble at the highest concentration used, they were dissolved in organic solvent (CHCl3 or ethanol) and mixed with the phosphatidylserine dissolved in CHCl3. The solvent was removed under a stream of N2.
(§3) Mixed liposomes were then prepared, as described for the preparation of the liposomes of phosphatidylserine alone, by the addition of 0.05 M Tris-Cl, pH 7.4, and sonication for 30 sec with the microtip probe of a Sonifier Cell Disrupter (Heat Systems-Ultrasonics). Incubation was for 5 min at 37° C. The samples were then be cooled to 4° C. for 8 min and 200 μl of 35% polyethylene glycol in 0.05 M Tris-Cl, pH 7.4 (w:w) added. After vigorous mixing, the samples were incubated for 15 min to allow precipitation of the receptor. The precipitate was recovered by centrifugation at 12,000 rpm in a Beckman microcentrifuge at 4° C. A 100 μl aliquot of the supernatant was removed and its radioactivity determined in a Wallac liquid scintillation counter, Model 1409. This value provided a measure of the concentration of unbound [^3H]PDBu. The remainder of the supernatant was removed by aspiration and blotting with absorbent tissue. The tip of the centrifuge tube was cut off and the radioactivity in the pellet measured to determine total bound [^3H]PDBu. Non-specific binding of [^3H]PDBu was measured in the presence of 30 μM non-radioactive PDBu and used to determine an apparent partition coefficient for [^3H]PDBu under these assay conditions.
(§4) Specific binding represents the difference between total binding and the non-specific binding, where the latter value was calculated from the partition coefficient and the measured free [^3H]PDBu concentration in each tube. In each experiment, triplicate determinations were performed at each concentration of competing ligand.

The target in a further test is T2, γ-PKC (Homo sapiens, UniProt P05129).
T2 construct: made in house; host or cells: Sf9 cells (baculovirus)
As to the method:
as §1, §2, §3, §4

The next test has as its target T3, ε-PKC (Homo sapiens, UniProt Q02156).
T3 sequence (Q02156 1-737): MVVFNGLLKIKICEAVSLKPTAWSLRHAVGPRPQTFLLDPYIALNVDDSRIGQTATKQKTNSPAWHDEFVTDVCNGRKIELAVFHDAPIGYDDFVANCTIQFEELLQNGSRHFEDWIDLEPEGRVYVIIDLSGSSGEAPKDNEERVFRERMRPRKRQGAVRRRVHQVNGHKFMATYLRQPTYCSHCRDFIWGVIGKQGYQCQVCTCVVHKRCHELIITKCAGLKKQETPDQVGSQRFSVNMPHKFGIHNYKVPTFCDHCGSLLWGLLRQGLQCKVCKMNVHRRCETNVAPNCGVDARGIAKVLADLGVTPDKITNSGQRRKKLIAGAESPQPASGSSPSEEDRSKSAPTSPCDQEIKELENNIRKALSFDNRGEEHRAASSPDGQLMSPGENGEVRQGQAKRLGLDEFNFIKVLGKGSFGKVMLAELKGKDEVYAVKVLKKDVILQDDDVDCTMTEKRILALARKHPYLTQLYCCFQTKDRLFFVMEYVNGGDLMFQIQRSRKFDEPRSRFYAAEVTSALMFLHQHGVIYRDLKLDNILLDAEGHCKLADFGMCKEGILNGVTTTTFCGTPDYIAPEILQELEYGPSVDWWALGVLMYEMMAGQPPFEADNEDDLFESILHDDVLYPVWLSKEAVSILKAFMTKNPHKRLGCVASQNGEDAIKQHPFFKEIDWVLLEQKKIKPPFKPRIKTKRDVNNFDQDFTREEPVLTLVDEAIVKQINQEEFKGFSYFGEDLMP
On the procedure: as §1, §2, §3, §4

Molecules are shown by their SMILES. Where “and” joins values, the source holds several entries; their conditions need not be identical. Equal values may be shown once. Bounds are passed on as bounds.

In general, Ki refers to a measure of affinity in units of concentration, obtained from inhibition or displacement. For `CCCCCCCCCCCC(=O)Oc1cc2c(cc1C(C)=O)[C@@H]1[C@@H](CO)NC(=O)[C@@H]1[C@]2(C)C(C)C` [Compound 4, (3S, 8S, 9S, 10S)-5-acetyl-6-dodecanoyloxyl-3-hydroxymethyl-8-isopropyl-8-methyl-3,3a,8,8a-tetrahydro-2H -2-aza-cyclopenta[a]inden-1-one], the Ki on α-PKC is 2.25 ± 0.585 µM; on γ-PKC, 3.65 ± 1.09 µM; at ε-PKC, 5.1 ± 3.11 µM.

Consider `CCCCCCCCC#Cc1ccc2c(c1)C(C)(C(C)C)C1C(=O)NC(CO)C21` [Compound 1, (3S, 8R, 9S, 10S)-6-(dec-1′-ynyl)-3-hydroxymethyl-8-isopropyl-8-methyl-3,3a,8,8a-tetrahydro-2H-2-aza-cyclopenta[a]inden-1-one], for which the Ki is 0.58 ± 0.214 µM on α-PKC; 0.279 ± 0.05 µM on γ-PKC; 0.469 µM and 0.946 µM on ε-PKC.

As to `CCCCCCCCCCCC(=O)Oc1ccc2c(c1)[C@](C)(C(C)C)[C@H]1C(=O)N[C@H](CO)[C@@H]21` [Compound 2, (3S, 8R, 9S, 10S)-6-dodecanoyloxyl-3-hydroxymethyl-8-isopropyl-8-methyl-3,3a,8,8a-tetrahydro-2H -2-aza-cyclopenta[a]inden-1-one], the Ki is 0.395 ± 0.071 µM on α-PKC, 0.209 ± 0.038 µM on γ-PKC and 0.515 ± 0.155 µM on ε-PKC.

Turning to `CCCCCCCCCCCC(=O)Oc1ccc2c(c1)[C@@](C)(C(C)C)[C@H]1C(=O)N[C@H](CO)[C@@H]21` [Compound 3, (3S, 8S, 9S, 10S)-6-dodecanoyloxyl-3-hydroxymethyl-8-isopropyl-8-methyl-3,3a,8,8a-tetrahydro-2H -2-aza-cyclopenta[a]inden-1-one], the Ki on α-PKC came out at 0.674 ± 0.249 µM; on γ-PKC, 0.327 ± 0.065 µM; on ε-PKC, 0.228 ± 0.043 µM.

As to `CCCCCCCCCCCC(=O)Oc1cc2c(cc1Br)[C@@H]1[C@@H](CO)NC(=O)[C@@H]1[C@]2(C)C(C)C` [Compound 5, (3S, 8S, 9S, 10S)-5-bromo-6-dodecanoyloxyl-3-hydroxymethyl-8-isopropyl-8-methyl-3,3a,8,8a-tetrahydro-2H -2-aza-cyclopenta[a]inden-1-one], the results for the Ki on α-PKC, at γ-PKC and on ε-PKC were 2.98 ± 1.04 µM, 1.23 ± 0.258 µM and 1.3 ± 0.377 µM, respectively.

With `CCCCCCCCCCCC(=O)Oc1cc2c(cc1C(C)=O)[C@@H]1[C@@H](CO)NC(=O)[C@@H]1[C@@]2(C)C(C)C` [Compound 11, (3S, 8R, 9S, 10S)-5-acetyl-6-dodecanoyloxyl-3-hydroxymethyl-8-isopropyl-8-methyl-3,3a,8,8a-tetrahydro-2H -2-aza-cyclopenta[a]inden-1-one], the inhibitory constant (Ki) on α-PKC, on γ-PKC and at ε-PKC was more than 10 µM throughout.
